Results on 13 molecules are retold here after paper PMC10091413, “Modeling the Orthosteric Binding Site of the G Protein-Coupled Odorant Receptor OR5K1” (Journal of Chemical Information and Modeling, 2023).

For assay [1], the target named is T1, OR5K1 (Homo sapiens, UniProt Q8NHB7).
T1 construct: The protein-coding region of human OR5K1 (NM_001004736.3); IL-6-HaloTag (from expression plasmid pFN210A) (N); expressed in transfected cells; host or cells: HEK-293
T1 sequence (Q8NHB7 1-308): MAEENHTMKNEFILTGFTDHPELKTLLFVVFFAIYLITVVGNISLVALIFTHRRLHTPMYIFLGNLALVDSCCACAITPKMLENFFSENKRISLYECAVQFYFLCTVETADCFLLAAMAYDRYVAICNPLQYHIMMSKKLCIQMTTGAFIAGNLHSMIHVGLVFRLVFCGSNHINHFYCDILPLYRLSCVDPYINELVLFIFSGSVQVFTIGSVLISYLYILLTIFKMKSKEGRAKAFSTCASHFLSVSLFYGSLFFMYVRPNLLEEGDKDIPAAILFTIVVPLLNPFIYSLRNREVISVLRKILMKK
Details: method as in PMID 34047404. Particulars: cited from earlier work; for EC50: OR5K1 agonist activity, data retrieved from the literature.

Another assay deals with T2, OR5K1 L104^3.32A (Homo sapiens, UniProt Q8NHB7, L104A).
T2 construct: The protein-coding region of human OR5K1 (NM_001004736.3); IL-6-HaloTag (from expression plasmid pFN210A) (N); expressed in transfected cells; host or cells: HEK-293
T2 sequence (Q8NHB7 1-308 L104A): T1 sequence (Q8NHB7 1-308) with L104A
In words: cAMP-luminescence concentration-response assay, mutant OR5K1 L104^3.32A in HEK-293 cells. The conditions noted are these: OR5K1 L104^3.32A mutant; mean ± SD, n = 4. It is filed as cell-based. The procedure: (§1) Mutants L104^3.32 and L255^6.51 were generated by PCR-based site-directed mutagenesis in two steps. Step one PCR was performed in two amplifications: one with the forward vector-internal primer and the reverse mutation-primer and the other with the forward mutation-primer and the reverse vector-internal primer. Amplification was performed with the touchdown approach described above. Both PCR amplicons were then purified and used as a template for step two. The two overlapping amplicons were annealed using the following touchdown program: denaturation (98 °C, 3 min), ten cycles containing denaturation (98 °C, 30 s), annealing (start 60 °C, 30 s), and extension (72 °C, 2 min). […]
(§2) We utilized HEK-293 cells,[101] a human embryonic kidney cell-line, as a test cell system for the functional expression of ORs.[102] […] The utilized pGloSensor-22F is a genetically engineered luciferase with a cAMP-binding pocket, allowing for measurements of a direct cAMP-dependent luminescence signal. […]
(§3) Concentration–response assays were measured 42 h post-transfection as described previously.[102] […] For luminescence measurements, the GloMax Discover microplate reader (Promega, Madison, USA) was used. After incubation for 50 min in the dark, the basal luminescence signal of each well was recorded thrice. […]

In another assay the target is T3, OR5K1 L255^6.51A (Homo sapiens, UniProt Q8NHB7, L255A).
T3 construct: The protein-coding region of human OR5K1 (NM_001004736.3); IL-6-HaloTag (from expression plasmid pFN210A) (N); expressed in transfected cells; host or cells: HEK-293
T3 sequence (Q8NHB7 1-308 L255A): T1 sequence (Q8NHB7 1-308) with L255A
In words: cAMP-luminescence concentration-response assay, mutant OR5K1 L255^6.51A in HEK-293 cells. It counts as cell-based. Particulars: OR5K1 L255^6.51A mutant; mean ± SD, n = 4. Here is the method: as §1, §2, §3

The target in assay [2] is T1, OR5K1. Description: cAMP-luminescence (GloSensor) concentration-response assay, OR5K1 transiently expressed in HEK-293 cells. It counts as cell-based. Particulars: OR5K1 agonist activity, tested in this work, mean ± SD, n = 4, last tested concentration 300 μM. The procedure:
We utilized HEK-293 cells,[101] a human embryonic kidney cell-line, as a test cell system for the functional expression of ORs.[102] Cells were cultivated at 37 °C, 5% CO2, and 100% humidity in 4.5 g/L D-glucose containing DMEM with 10% fetal bovine serum, 2 mM L-glutamine, 100 U/mL penicillin, and 100 U/mL streptomycin. Cells were cultured in a 96-well format (Nunclon Delta Surface, #136102; Thermo Fisher Scientific, Schwerte, Germany) at 12,000 cells/well overnight. Then, cells were transfected utilizing 0.75 μL/well ViaFect (#E4981, Promega, USA) with the following constructs: 100 ng/well of the respective OR construct, 50 ng/well of chaperone RTP1S,[103] 50 ng/well of the G protein subunit Gαolf,[104],[105] olfactory G protein subunit Gγ13,[106] and 50 ng/well of pGloSensor-22F (Promega, Madison, USA).[107] The utilized pGloSensor-22F is a genetically engineered luciferase with a cAMP-binding pocket, allowing for measurements of a direct cAMP-dependent luminescence signal. All measurements were mock-controlled, i.e. pFN210A without OR was transfected in parallel.
Concentration–response assays were measured 42 h post-transfection as described previously.[102] […] For luminescence measurements, the GloMax Discover microplate reader (Promega, Madison, USA) was used. After incubation for 50 min in the dark, the basal luminescence signal of each well was recorded thrice. Then the odorant, serially diluted in the physiological salt buffer with added Pluronic PE-10500 (BASF, Ludwigshafen, Germany), was applied to the cells, and luminescence was measured thrice after 10 min of incubation time. […]
The raw luminescence data obtained from the GloMax Discover microplate reader detection system were analyzed for concentration/response assays by averaging both data points of basal levels and data points after odorant application. For a given luminescence signal, the respective basal level was subtracted, and the now corrected data set was normalized to the maximum amplitude of the reference. […]

Positions count from the first letter of the chain named. Read-outs that look alike come from different tables or passages of the source. A value given as a limit tells only on which side of the number the result lay.

As a reminder, the EC50 is the concentration giving half of the maximal effect. As for `C=CCc1ccc(OC)c(OC)c1` [Compound 3, Methyl eugenol], the EC50 on OR5K1 [1] was 62.2 ± 1.45 µM.

With `CC(=O)c1nccnc1C` [Compound 11, 2-Acetyl-3-methylpyrazine], the EC50 at OR5K1 [1] is 531 ± 27.6 µM.

Take `Cc1cnc(C)c(C)n1` [Compound 6, 2,3,5-Trimethylpyrazine]: the concentration for a half-maximal effect (EC50) at OR5K1 [1] was 139 ± 7.08 µM.

Regarding `CCc1nccnc1CC` [Compound 4, 2,3-Diethylpyrazine], the EC50 on OR5K1 [1] is 94.4 ± 11.9 µM.

On to `Cc1cncc(C)n1` [Compound 12, 2,6-Dimethylpyrazine], for which the half-maximal effective concentration (EC50) at OR5K1 [1] was 544 ± 19.5 µM.

`COc1nccnc1C(C)C` [Compound 9, 2-Isopropyl-3-methoxypyrazine]: on OR5K1 [1], the concentration for a half-maximal effect (EC50) is 146 ± 8.83 µM.

As to `CCc1ncc(C)nc1CC` [Compound 1, 2,3-Diethyl-5-methylpyrazine], the values for the EC50 on OR5K1 L104^3.32A, at OR5K1 L255^6.51A and on OR5K1 [1] were 525 ± 92.3 µM, 478 ± 185 µM and 10.3 ± 1.06 µM, respectively.

Turning to `CCc1nccnc1C(C)=O` [Compound 10, 2-Acetyl-3-ethylpyrazine], the EC50 at OR5K1 [1] was 528 ± 167 µM.

Regarding `CCc1ncc(C)nc1C` [Compound 13, 2-Ethyl-3,5-dimethylpyrazine], the figures for the EC50 result on OR5K1 [2] and at OR5K1 [2] (read-out: EC50) were “could not be measured to saturation” and more than 300 µM, respectively.

On to `CCc1nccnc1OC` [Compound 5, 2-Ethyl-3-methoxypyrazine], for which the EC50 at OR5K1 [1] is 97.4 ± 15.6 µM.

For the molecule `c1cnccn1` [pyrazine, reference compound], on OR5K1 [1], the “activation of OR5K1” value is on record as “does not activate”.

Take `CCc1nccnc1C` [Compound 7, 2-Ethyl-3-methylpyrazine]: the concentration giving a half-maximal response (EC50) on OR5K1 [1] is 538 ± 96.8 µM.

For the molecule `CCc1nc(C)cnc1C` [Compound 2, 2-Ethyl-3,6-dimethylpyrazine], on OR5K1 [2] (read-out: EC50), the EC50 amounted to 14.8 ± 6.69 µM.
